# Assay results: US20070276032A1, “Use of 8-Prenylnaringenin for Hormone Replacement Therapy” (priority 2003, published 2007)
# How the values were obtained:
# ovariectomized rats [1] = assay: Uterus histology, luminal epithelium cell height in ovariectomized rats (Example 3); assay type: in vivo, Sprague-Dawley rats; conditions: ovariectomized rat; at 1.77 mg/kg and 18 mg/kg
# Procedure: A post-study histological examination was performed. The formalin fixed uteri were embedded in paraffin, cut into 5 μm transverse sections and were stained with haematoxylin eosin. The sections were then evaluated quantitatively for luminal epithelium cell height.
# [2] = Body weight, 8-PN racemic, 2S(−) 8-PN and estradiol hemihydrate in ovariectomized rats (Example 4); assay type: in vivo, Sprague-Dawley rats; conditions: OVX rats; s.c. once a day, 28 days; 20 mg/kg/d in HP-β-CD
# Procedure: The aim of the study was to directly compare the effects of Prenylnaringenin (racemate) and 2S(−) 8-Prenylnaringenin to the effects of estradiol hemihydrate on bone mineral density and uterine weight on 3-month-old ovariectomized rats using identical formulations. In addition, the effects of estradiolhemihydrate in two vehicles (oily, aqueous) were examined for influence of formulations. The substances were administered subcutaneously(s.c.) seven days a week beginning the day after ovariectomy. At the end of the study, uterine weight and bone mineral density (BMD) of tibia were measured.
# Forty-one female Sprague-Dawley rats, 12-14 weeks of age were randomized into six groups, 6-8 animals in each. Five groups were ovariectomized (OVX) and one group was sham-operated (SHAM). Treatments started on the day following operation and continued for 28 days. The animals were treated s.c. once a day seven times a week as follows. Group 1 (SHAM vehicle group) and group 2 (OVX vehicle group) were given the vehicle 30% hydroxypropyl-β-cyclodextrin (HP-β-CD). Groups 3 and 4 were administered 4 μg/kg/d of estradiol hemihydrate in vehicle benzyl benzoate/ricinus oil (B/R) and in vehicle HP-β-CD, respectively. Groups 5 and 6 were given 20 mg/kg/d of 2S(−)8-Prenylnaringenin and racemic 8-Prenylnaringenin, respectively, both in vehicle HP-β-CD. At the end of the study, left tibiae were excised for the ex vivo BMD […] were taken from all dosing solutions on the first and last day of use.
# Vehicle 1 (used in the groups 1 and 2): 30% hydroxypropyl-β-cyclodextrin and 0.3% NaCl (w/v), 5% ethanol (v/v) in Aqua sterilisata, pH 7.4.
# Vehicle 2 (used when preparing dosing solutions of the groups 4, 5 and 6): 30% hydroxypropyl-β-cyclodextrin and 0.3% NaCl (w/v) in Aqua sterilisata, pH 7.4.
# Vehicle 3 (used when preparing a dosing solution of the group 3): benzyl benzoate/ricinus oil (B/R) 1+4, v/v.
# ovariectomized rats [3] = assay: Relative uterine weight, 2S(−) 8-PN in ovariectomized rats (Example 3); assay type: in vivo, Sprague-Dawley rats; conditions: OVX rats; for Relative uterus weight, Mean: s.c. 7 times a week
# Procedure: (§1) The aim of the study was to examine bone and uterine effects of a 4-week treatment with 2S(−) 8-Prenylnaringenin (8-PN) in 3-month-old ovariectomized rats. […] At the end of the study, uterine weight and ex vivo bone mineral density (BMD) of tibia were measured.
# (§2) A total of 30 female 13-14-week-old Sprague-Dawley rats were used in the study. The animals were randomized into 5 groups, with 6 rats/group. Group 1 was sham-operated (SHAM) and groups 2-5 were ovariectomized (OVX).
# (§3) Treatments with the vehicle or test substance started on the day following operation. […] The animals were sacrificed one day after the last dosing. At the end of the study, left tibiae were excised for ex vivo BMD measurement (pQCT) at proximal tibia and uteri were excised for the determination of absolute and relative weights. In addition, samples for the determination of 2S(−)8-Prenylnaringenin concentration were taken from all dosing solutions on the day when they were prepared and on the last day of use. The data of body weights, relative uterine weights and BMD were analyzed with one-way analysis of variance.
# Relative uterine weight was calculated as percentage of body weight
# ovariectomized rats [4] = assay: Ex vivo BMD (pQCT) of proximal tibia, 2S(−) 8-PN in ovariectomized rats (Example 3); set-up: species or system Sprague-Dawley rats; conditions: OVX rats; for Total BMD, MEAN / Total BMD, MEDIAN / Trabecular BMD, MEAN / Trabecular BMD, MEDIAN: left proximal tibia ex vivo, s.c. 4 weeks
# Procedure: as §1, §2, §3
# Bone mineral density measurement was carried out by pQCT (XCT-960A, Stratec, Germany). The bone specimens were thawed before measurement. Six 1 mm-thick sections of the proximal tibia (2 mm below the epiphyseal growth plate) were scanned at 0.5 mm intervals using a voxel size of 0.148 mm. Total and trabecular BMD (mg/cm^3) were measured. After bone densitometry, the specimens were wrapped back to saline saturated gauzes and stored at −20° C.
# [5] = Body weight, 2S(−) 8-PN in ovariectomized rats (Example 3); assay type: in vivo, Sprague-Dawley rats; conditions: OVX rats, s.c. once a day, 7 times a week, 4 weeks
# Source text: as §2
# The mean body weight of the animals was 271 g (SD 9, SE 2) before operation. Treatments with the vehicle or test substance started on the day following operation. The animals in the SHAM group received the vehicle, 30% hydroxypropyl-β-cyclodextrin s.c., and in the OVX groups either the vehicle or 2S(−) 8-PN at nominal doses of 0.67 mg/kg/d, 1.77 mg/kg/d or 18 mg/kg/d s.c. Treatments continued for 4 weeks; the dosing frequency was seven times a week. The animals were sacrificed one day after the last dosing. At the end of the study, left tibiae were excised for ex vivo BMD measurement (pQCT) at proximal tibia and uteri were excised for the determination of absolute and relative weights. In addition, samples for the determination of 2S(−)8-Prenylnaringenin concentration were taken from all dosing solutions on the day when they were prepared and on the last day of use. The data of body weights, relative uterine weights and BMD were analyzed with one-way analysis of variance.
# [6] = dose range 0.67-18 mg/kg/d s.c., 4 weeks
smiles,measurement,setting,value
"CC(C)=CCc1c(O)cc(O)c2c1O[C@H](c1ccc(O)cc1)CC2=O [2S(−)8-PN, 2S(−) 8-Prenylnaringenin]",luminal epithelial cell height,ovariectomized rats [1],weak stimulation of luminal epithelial cell height
same,Body weight at The end (bw4b),[2],289(6) g
same,The change in Body weight (bw4b-bw0),[2],24(2) g
same,effect on the uterus compared with 17β-estradiol,ovariectomized rats [3]; at the same bone effective dose,much lower effect on the uterus than 17β-estradiol at the same bone effective dose
same,increase of relative uterine weight compared to ovariectomy,ovariectomized rats [3]; [6],less than twofold
same,relative uterine weights,"ovariectomized rats [3]; dose range 0.67-18 mg/kg/d, SHAM group 0.194%",0.054-0.065%
same,"Relative uterus weight, Mean","ovariectomized rats [3]; 4 weeks, 0.67 mg/kg/d",0.054%
same,"Relative uterus weight, Mean","ovariectomized rats [3]; 4 weeks, 1.77 mg/kg/d",0.063%
same,"Relative uterus weight, Mean","ovariectomized rats [3]; 4 weeks, 18 mg/kg/d",0.065%
same,effect on OVX-induced decreases in BMD at the highest dose,"ovariectomized rats [4]; 18 mg/kg/d s.c., 4 weeks",completely inhibited OVX-induced effects
same,effect on OVX-induced decreases in total and trabecular BMD,ovariectomized rats [4]; [6],prevented the OVX-induced decreases in both total and trabecular BMD at the proximal tibial metaphysis dose dependently
same,"Total BMD, MEAN",ovariectomized rats [4]; 0.67 mg/kg/d,561.1 mg/mL
same,"Total BMD, MEDIAN",ovariectomized rats [4]; 0.67 mg/kg/d,569.2 mg/mL
same,"Trabecular BMD, MEAN",ovariectomized rats [4]; 0.67 mg/kg/d,319.1 mg/mL
same,"Trabecular BMD, MEDIAN",ovariectomized rats [4]; 0.67 mg/kg/d,318.7 mg/mL
same,"Total BMD, MEAN",ovariectomized rats [4]; 1.77 mg/kg/d,581.5 mg/mL
same,"Total BMD, MEDIAN",ovariectomized rats [4]; 1.77 mg/kg/d,568.1 mg/mL
same,"Trabecular BMD, MEAN",ovariectomized rats [4]; 1.77 mg/kg/d,330.9 mg/mL
same,"Trabecular BMD, MEDIAN",ovariectomized rats [4]; 1.77 mg/kg/d,329.4 mg/mL
same,"Total BMD, MEAN",ovariectomized rats [4]; 18 mg/kg/d,636.5 mg/mL
same,"Total BMD, MEDIAN",ovariectomized rats [4]; 18 mg/kg/d,635.4 mg/mL
same,"Trabecular BMD, MEAN",ovariectomized rats [4]; 18 mg/kg/d,411.8 mg/mL
same,"Trabecular BMD, MEDIAN",ovariectomized rats [4]; 18 mg/kg/d,396.6 mg/mL
same,Body weight at the end (bw4b),[5]; 0.67 mg/kg/d,323 (11) g
same,The change in Body weight (bw4b-bw0),[5]; 0.67 mg/kg/d,53 (7) g
same,Body weight at the end (bw4b),[5]; 1.77 mg/kg/d,305 (7) g
same,The change in Body weight (bw4b-bw0),[5]; 1.77 mg/kg/d,35 (5) g
same,Body weight at the end (bw4b),[5]; 18 mg/kg/d,304 (5) g
same,The change in Body weight (bw4b-bw0),[5]; 18 mg/kg/d,33 (4) g
